The values below come from patent US11472846B2, “Compositions and methods for treating diseases by inhibiting exosome release” (priority 2016, dated 2022).

Entries after “also recorded” stand apart in the source; their conditions may differ. Read-outs that look alike come from different tables or passages of the source.

Holding throughout (type): cell-based, human
Test [1] has as its system non-tumorigenic MCF-10A cells. The test is described as follows: MTT proliferation assay, MCF-10A. Particulars: 24 hours, up to 1120 nM/mL. Here is the method: (§1) 1-3. Viability and proliferation. Human breast cancer cell lines were seeded into 96-well plates (5000 cells/well) and treated for 24 hours with various concentrations of SMR peptides including PEG-SMRwt-Clu, PEG-SMRwt and PEG-SMRmut to determine IC50 (inhibition concentration). Cell proliferation was determined using the MTT assay (Molecular Devices, Sunnyvale, Calif.). Control experiments were performed with MTT treated cells alone and untreated cells, and on this basis, the incubation times of 24 hr and 48 hr were used for an MTT assay of peptide-treated cells (Stockerta JC. et al., 2012 and Riss TL. et al., 2015).
7-4. Cell proliferation and cytotoxicity assay. Human breast cancer cell lines MCF-7, MDAMB-231, and leukemia K562 cells, and non-tumorigenic MCF-10A cells are seeded into 96-well plates (5000 cells/well) and treated for 24 hours with 0-1120 nM SMRwt-CPP or SMRmut-CPP (FIG. 10). Cell proliferation was determined using the MTT [3-(4,5-dimethylthiazol-2-yl)-2,5-diphenyltetrazolium bromide] dye assay by SpectraMax M5 Fluorescence Plate Reader (Molecular Devices. Sunnyvale, Calif.). Cell viability was estimated by the conversion of yellow MTT by mitochondrial dehydrogenases of living cells to purple formazon (MTT assay). […] Statistical significance of results was determined from three independent experiments including triplet or quadruplet sets in each experiment.

Test [2] deals with MDA-MB-231 breast cancer cells. The test is described as follows: Propidium iodide cell cycle analysis (Cellometer), MDA-MB-231. The note with it: MDA-MB-231 cells, 48 hours, 0.28 μM/mL peptide. Here is the method:
(§2) 1-4. Cell cycle analysis. MCF-7 and MDA-MB-231 breast cancer cells were cultured into 6-well plates at 4×10^5 cells per well and treated with either paclitaxel and cisplatin or combined with PEG-SMRwt-CLU peptide for 24 and 48 hours. Cell cycle analysis was performed using a propidium iodide cell cycle assay and measured using a Cellometer (Nexcelom, MA). […] Breast cancer cells were seeded into 96-well plates at 5×10^3 cells/ml, and treated with either 1.6 μM//mL of paclitaxel, or 3 mg/mL cisplatin, 1.12 μM/mL PEG-SMRwt-CLU peptide, SMR peptide combined with paclitaxel or with cisplatin (MCF-7 cells). Alternatively 1.6 μM/mL paclitaxel or 2 mg/mL cisplatin or 0.28 μM/mL of PEG-SMR-CLU peptide, or the peptide combined with each of these drugs was used for MDA-MB-231 cells. The concentrations for cisplatin and paclitaxel were experimentally determined IC50 dosages for the different cell types (data not shown). At the end of the 24 hr or 48 hr incubations, the cells were assessed by the Cellometry imaging cytometry assay.
(§3) All above steps were done on MCF-7 and MDA-MB-231 cells separately. […]

Test [3] concerns MDA-MB-231 breast cancer cells. The test is described as follows: MTT proliferation assay, MDA-MB-231. Particulars: MDA-MB-231 cells, 24 hours. The method, then: as §1
(§4) 7-4. Cell proliferation and cytotoxicity assay. Human breast cancer cell lines MCF-7, MDAMB-231, and leukemia K562 cells, and non-tumorigenic MCF-10A cells are seeded into 96-well plates (5000 cells/well) and treated for 24 hours with 0-1120 nM SMRwt-CPP or SMRmut-CPP (FIG. 10). Cell proliferation was determined using the MTT [3-(4,5-dimethylthiazol-2-yl)-2,5-diphenyltetrazolium bromide] dye assay by SpectraMax M5 Fluorescence Plate Reader (Molecular Devices. Sunnyvale, Calif.). Cell viability was estimated by the conversion of yellow MTT by mitochondrial dehydrogenases of living cells to purple formazon (MTT assay). Control experiments were performed with cells treated or untreated with MTT, and on this basis, an incubation time of 24 hours was used for MTT assays of peptide-treated cells (Huang, M. B., et al., Oncotarget, 2017. 8(7): pp. 11302-11315.). Statistical significance of results was determined from three independent experiments including triplet or quadruplet sets in each experiment.

For test [4], the system named is MCF-7 breast cancer cells. The test is described as follows: Propidium iodide cell cycle analysis (Cellometer), MCF-7. The note with it: MCF-7 cells, 48 hours, 1.12 μM/mL peptide. The method, then: as §2, §3
The test system of test [5] is MCF-7 breast cancer cells. The test is described as follows: Exosome nanoparticle tracking analysis (NanoSight NTA), MCF-7. The note with it: MCF-7 cells treated 48 hr; untreated control 5.16×10^9 particles/ml. Here is the method: 1-6. Exosome isolation and purification. Exosomes were isolated from breast cancer cells by differential centrifugation as previously described (Ali SA. et al., 2010). Untreated tumor cells were used as a control. Briefly, the above treated and untreated cell culture supernatants were centrifuged at 400×g for 10 minutes. The supernatants were transferred to a clear tube and centrifuged at 10,000×g for 30 minutes. The supernatants from the second spin were ultracentrifuged at 200,000×g for 2 hours to pellet exosomes. Finally, the exosome pellets were re-suspended with PBS and stored at 4° C. until used for analysis.
1-8. Exosome nanoparticle tracking analysis (NTA). Analysis of absolute size distribution of exosomes was performed using NanoSight LM10 with NTA2.3 (NanoSight Ltd., Minton Park, UK). Particles were automatically tracked and sized based on Brownian motion and the diffusion coefficient. After isolation, the untreated and treated breast cancer exosomes were re-suspended in 0.5 mL of PBS. Control medium and filtered PBS were used as controls in this technique. The NTA measurement conditions were: temperature=21.0+/−0.5° C.; viscosity=0.99+/−0.01 cP; frames per second=25; measurement time=30 s. The detection threshold was similar in all samples. Two recordings were performed for each sample.
7-11. Exosome nanoparticle tracking analysis (NTA). […]

The subject of test [6] is MCF-7 breast cancer cells. The test is described as follows: MTT proliferation assay, MCF-7. Particulars: MCF-7 cells, 24 hours. Here is the method: as §1, §4
For test [7], the system named is MCF-7 breast cancer cells. The test is described as follows: Annexin V-FITC/PI apoptosis assay, MCF-7. Particulars: MCF-7 cells, 48 hours. Here is the method: 1-5. Assessment of apoptosis. Breast cancer cells were seeded into 6-well plates at 4×10^5 cells per well and treated with either paclitaxel or cisplatin or various concentrations of SMR peptides for 24 hours or different time point. SMR as described above. Apoptosis was determined the using Annexin V-FITC detection kit (Nexcelom, MA) and visualized by Cellometer imaging cytometry.

Setting [8] is: MTT, read-out: 50% inhibition of cell growth.
Setting [9] is: read-out: SMR at IC50 concentration.

In the case of VGFPVAAVGFPVGRKKRRQRRRPPQ [SMRwt-CPP], in test [1], the “effect on proliferation (in words)” value was “not affected; also recorded: no effect”.
As to “NXNVGFPVAAVGFPVHPLSKHPYWSQP (SEQ ID NO: 37) [PEG-SMRwt-Clu]”, the cell cycle effect result in test [2] and in test [4] was “induced cell cycle arrest” in each case. Besides, the IC50 was 280 nM in test [3] (setting [8]), 280 nM in test [3] (setting [9]), 1120 nM in test [6] (setting [8]) and 1120 nM in test [6] (setting [9]). The “number of exosome particles (NTA)” value in test [5] is recorded as 3.28×10^8 particles/ml. Also, the “effect on paclitaxel/cisplatin-induced apoptosis” value in test [7] was “increased the level of drug-induced apoptosis”.
